# Reference: PubChem BioAssay AID330 (DTP/NCI, 2004)
# Toxic doses and inconclusive results are not listed.
# Test system: P388 leukemia ip, CD2F1 mice, survival T/C
# Assay: NCI In Vivo Anticancer Drug Screen. Data for tumor model P388 Leukemia (intraperitoneal) in CD2F1 (CDF1) mice
# Conditions: endpoint: median survival time, higher = longer survival
# Summary of the method: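 Mice carrying the transplanted tumor received test compound or vehicle. Survival was recorded in each group, and the value is the treated-group measurement divided by that of the vehicle-treated control group.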
# [1] = dose: 50.0 mg/kg/injection, schedule: Q01DX005 (ip), vehicle: Klucel (hydroxypropylcellulose) (HPC)
# [2] = dose: 100.0 mg/kg/injection, schedule: Q01DX005 (ip), vehicle: Klucel (hydroxypropylcellulose) (HPC)
# [3] = dose: 50.0 mg/kg/injection, schedule: Q04DX003 (ip), vehicle: saline with Tween-80
compound,measurement,setting,value
C/C=C/c1cc2n(c1)C(=O)c1cc(OC3OC(C)C(NC)C(C)(O)C3O)c(C)c(O)c1NC2O (stereo not given),T/C,"dose: 0.02 mg/kg/injection, schedule: Q04DX003 (ip), vehicle: saline",94 % of control
same,T/C,"dose: 0.04 mg/kg/injection, schedule: Q04DX003 (ip), vehicle: saline",89 % of control
same,T/C,"dose: 0.3 micrograms/kg/injection, schedule: Q03DX003 (ip), vehicle: DMSO",110 % of control
same,T/C,"dose: 1.0 micrograms/kg/injection, schedule: Q01DX001 (ip), vehicle: DMSO",120 % of control
same,T/C,"dose: 1.0 micrograms/kg/injection, schedule: Q01DX009 (ip), vehicle: saline",100 % of control
same,T/C,"dose: 4.0 micrograms/kg/injection, schedule: Q01DX009 (ip), vehicle: saline",117 % of control
same,T/C,"dose: 4.0 micrograms/kg/injection, schedule: Q04DX003 (ip), vehicle: DMSO",120 % of control
same,T/C,"dose: 16.0 micrograms/kg/injection, schedule: Q01DX001 (ip), vehicle: DMSO",173 % of control
same,T/C,"dose: 16.0 micrograms/kg/injection, schedule: Q03DX003 (ip), vehicle: DMSO",180 % of control
same,T/C,"dose: 16.0 micrograms/kg/injection, schedule: Q04DX003 (ip), vehicle: DMSO",123 % of control
same,T/C,"dose: 32.0 micrograms/kg/injection, schedule: Q01DX001 (ip), vehicle: DMSO",95 % of control
O=C1OCC2CC3C4C=CC(C4)C3C12 (stereo not given),T/C,[1],103 % of control
same,T/C,[2],93 % of control
CCCC1CC[N-]CC1.CCCC1CC[N-]CC1.[Cl][Pt+2]([Cl])([Cl])[Cl],T/C,"dose: 1.0 mg/kg/injection, schedule: Q01DX009 (ip), vehicle: saline with Tween-80",90 % of control
same,T/C,"dose: 2.0 mg/kg/injection, schedule: Q01DX009 (ip), vehicle: saline with Tween-80",95 % of control
same,T/C,"dose: 3.75 mg/kg/injection, schedule: Q01DX009 (ip), vehicle: saline with Tween-80",100 % of control
same,T/C,"dose: 4.0 mg/kg/injection, schedule: Q01DX009 (ip), vehicle: saline with Tween-80",100 % of control
same,T/C,"dose: 11.0 mg/kg/injection, schedule: Q01DX009 (ip), vehicle: saline with Tween-80",118 % of control
same,T/C,"dose: 25.0 mg/kg/injection, schedule: Q04DX003 (ip), vehicle: saline with Tween-80",110 % of control
same,T/C,"dose: 37.5 mg/kg/injection, schedule: Q01DX009 (ip), vehicle: saline with Tween-80",118 % of control
same,T/C,[3],120 % of control
same,T/C,"dose: 75.0 mg/kg/injection, schedule: Q04DX003 (ip), vehicle: saline with Tween-80",95 % of control
COC(=O)C1=CN(c2ccccc2)C(=O)C1,T/C,"dose: 100.0 mg/kg/injection, schedule: Q04DX003 (ip), vehicle: Klucel (hydroxypropylcellulose) (HPC)",118 % of control
same,T/C,"dose: 200.0 mg/kg/injection, schedule: Q04DX003 (ip), vehicle: Klucel (hydroxypropylcellulose) (HPC)",114 % of control
same,T/C,"dose: 400.0 mg/kg/injection, schedule: Q04DX003 (ip), vehicle: Klucel (hydroxypropylcellulose) (HPC)",108 % of control
O=C1c2ccccc2C(=O)N1/N=C/c1cccc(Cl)c1,T/C,"dose: 100.0 mg/kg/injection, schedule: Q04DX002 (ip), vehicle: saline with Tween-80",100 % of control
same,T/C,"dose: 200.0 mg/kg/injection, schedule: Q04DX002 (ip), vehicle: saline with Tween-80",93 % of control
same,T/C,"dose: 400.0 mg/kg/injection, schedule: Q04DX002 (ip), vehicle: saline with Tween-80",89 % of control
CCCCCCCCCCCCCCCCCCOC(=O)C(N)Cc1ccc(O)cc1 (stereo not given),T/C,"dose: 60.0 mg/kg/injection, schedule: Q01DX005 (ip), vehicle: Klucel (hydroxypropylcellulose) (HPC)",106 % of control
same,T/C,"dose: 120.0 mg/kg/injection, schedule: Q01DX005 (ip), vehicle: Klucel (hydroxypropylcellulose) (HPC)",101 % of control
same,T/C,"dose: 240.0 mg/kg/injection, schedule: Q01DX005 (ip), vehicle: Klucel (hydroxypropylcellulose) (HPC)",105 % of control
O=C(Sc1ccc(F)cc1)N1CCN(C(=O)Sc2ccc(F)cc2)CC1,T/C,[1],99 % of control
same,T/C,[2],96 % of control
same,T/C,"dose: 200.0 mg/kg/injection, schedule: Q01DX005 (ip), vehicle: Klucel (hydroxypropylcellulose) (HPC)",100 % of control
C=CCNc1ncnc2c1cnn2C,T/C,[3],104 % of control
same,T/C,"dose: 100.0 mg/kg/injection, schedule: Q04DX003 (ip), vehicle: saline with Tween-80",104 % of control
O=C(OC1(c2nccc3ccccc23)CCN(Cc2ccccc2)CC1)c1ccccc1,T/C,"dose: 12.5 mg/kg/injection, schedule: Q01DX009 (ip), vehicle: saline",100 % of control
same,T/C,"dose: 25.0 mg/kg/injection, schedule: Q01DX009 (ip), vehicle: saline",101 % of control
same,T/C,"dose: 50.0 mg/kg/injection, schedule: Q01DX009 (ip), vehicle: saline with Tween-80",93 % of control
same,T/C,"dose: 50.0 mg/kg/injection, schedule: Q01DX009 (ip), vehicle: saline",97 % of control
c1ccc2[s+]csc2c1,T/C,"dose: 6.25 mg/kg/injection, schedule: Q01DX009 (ip), vehicle: distilled water + Tween-80",102 % of control
same,T/C,"dose: 12.5 mg/kg/injection, schedule: Q01DX009 (ip), vehicle: distilled water + Tween-80",92 % of control
same,T/C,"dose: 25.0 mg/kg/injection, schedule: Q01DX009 (ip), vehicle: distilled water + Tween-80",107 % of control
same,T/C,"dose: 50.0 mg/kg/injection, schedule: Q01DX009 (ip), vehicle: distilled water + Tween-80",108 % of control
same,T/C,"dose: 100.0 mg/kg/injection, schedule: Q01DX009 (ip), vehicle: distilled water + Tween-80",93 % of control
